Series [1] can be described thus: Solubility. It is filed as physicochemical.
For series [2], the system named is rabbit platelets. Nature of the series: Effect on serotonin release from rabbit platelets. It is filed as cell-based, white rabbit. The conditions noted are these: for inhibition at 10 µg/mL: 10.0 μg/ml; for inhibition at 30 µg/mL: 30.0 μg/ml. Here is the method: Effect on serotonin release from rabbit platelets
9.25 vol of blood was sampled from the carotid artery of a white rabbit and placed in a FALCON 2070 tube (product of Falcon, Bector Dickinson) containing 0.75 vol of 77 mM ethylenediaminetetraacetic acid (EDTA). The thus obtained blood was centrifuged at 200 x g for 15 minutes to obtain platelet rich plasma (referred to as PRP hereinafter). This PRP was incubated with [2-^14 C]-serotonin (2 μCi/100 ml PRP) at 37° C. for an hour to incorporate [2-^14 C]-serotonin therein. Then, the PRP was centrifuged at 650 x g for 15 minutes to obtain platelet precipitates. After washing with Tris-buffered physiological saline (pH 7.4, containing 1 mM EDTA), the platelet precipitates were suspended in CA^++ -free Tyrode's soluton to reach a final density of 10^9 cells/ml.
To 0.475 ml of the thus prepared [2-^14 C]-serotoninlabeled platelet suspension was added 5 μl of a solution of the test compound. After incubation at 37° C. for 3 minutes, platelet activating factor (final concentration: 10^-9 M) was added as a stimulant, followed by incubation for further 3 minutes. 0.3 ml of the reaction solution was immediately taken and poured into 30 µl of ice-cold 0.1 mM formaldehyde5mM EDTA solution to terminate the reaction. After centrifugation at 3,000 rpm at 0° C. for 10 minutes, 250 μl of the supernatant was taken and the radioactivity was measured with a liquid scintillation counter.
*The rate of inhibition of serotonin release was calculated according to
the following equation.

In series [3] the test system is rabbit platelets. Put plainly: Effect on platelet aggregation of rabbit platelets. It is filed as cell-based, white rabbit. The conditions noted are these: for IC50: Oryctolagus cuniculus, Platelet, 37° C., read-out: IC50 (concentration of the test compound showing 50% inhibition), platelet aggregation. Here is the method: Effect on platelet aggreation of rabbit platelets
8.5 vol of blood was sampled from the carotid artery of a white rabbit and placed in a FALCON 2070 tube (product of Falcon, Bector Dickinson) containing 1.5 vol of citrate-dextrose soluton (71 mM citric acid, 85 mM sodium citrate and 111 mM dextrose). The thus obtained blood was centrifuged at 200×g for 15 minutes to obtain PRP. This PRP was centrifuged at 650×g for 10 minutes to obtain platelet precipitates. After washing with Ca^++ -free Tyrode's solution containing 2 mM ethyleneglycol bis(2-aminoethylether) tetraacetic acid (EGTA), the platelet precipitates were again centrifuged at 650 ×g for 10 minutes and washed. The thus obtained platelet precipitates were suspended in Ca^++ -free Tyrode's solution containing 0.25% bovine serum albumin to reach a density of 5×10^8 cells/ml. After the washed platelet suspension was allowed to stand at room temperature for about 30 minutes, 1 mM CaCl2 or 1 mM EGTA was added thereto and the mixture was allowed to stand for further 30 minutes. Then, platelet aggregation was measured.
The aggregation of platelets was determined using an aggregometer, AGGRETEC TE-500 (product of Erma Optical Co., Ltd.) to which the Born method was applied.
First, 10 μl of a test compound soluton was added to 0.2 ml of the washed platelet suspension, while stirring at 1,000 rmp and at 37° C. After incubation at 37° C. for 3 minutes, 10 μl of thrombin (final concentration: 0.05 U/ml) or platelet activating factor (final concentration: 10^-10 M) was added as a stimultant to initiate the reaction. The rate of inhibition of platelet aggregation of the test compound was calculated from the maximum aggregation rate obtained by the use of the test compound and the maximum aggregation rate obtained by the use of only the solvent used for dissolving the test compound, according to the following equation. [formula] A : Maximum aggregation rate of the solvent alone B : Maximum aggregation rate of the test compound
*Concentration of the test compound showing 50% inhibition.

Setting [4] is: hexane, carbon tetrachloride, benzene, neutral water, acidic water.
Setting [5] is: Oryctolagus cuniculus, stimulant platelet activating factor 10^-9 M, 37° C., read-out: Rate of inhibition of serotonin release.

Structures are written as SMILES. In brackets after ≈: the same amount, converted by molar mass. Entries after “also recorded” stand apart in the source; their conditions may differ. Read-outs that look alike come from different tables or passages of the source.

This is an account of results in US4868159A, “Novel substances KS-501 and KS-502 and process for their preparation” (Kyowa Hakko Kogyo Co., Ltd., priority 1987, dated 1989).

A word on the inhibition: it is the share of the control response that was lost under treatment. Turning to `CCCCCCCc1cc(OC(=O)c2c(CCCCCCC)cc(O)cc2OC2OC(C(O)CO)C(O)C2O)cc(O)c1C(=O)O` (stereo not drawn) [KS-502], the Solubility entry in series [1] (KS-502: chloroform, ethyl acetate, acetonitrile) is on record as “Soluble”. Also, the Solubility entry in series [1] (setting [4]) was “Insoluble”. Moreover, the “Inhibition of serotonin release from platelets (in words)” value in series [2] is reported as “inhibitory activity on serotonin release from platelets; also recorded: inhibited serotonin release from rabbit platelets, depending on the concentration”. For the same molecule, in series [2] (setting [5]), the inhibition at 10 µg/mL was 2.7% and the inhibition at 30 µg/mL was 28.9%. For the same molecule, in series [2] (Oryctolagus cuniculus, 50.0 μg/ml, stimulant platelet activating factor 10^-9 M, 37° C., read-out: Rate of inhibition of serotonin release), the inhibition at 50 µg/mL is 51.4%.

For the molecule `CCCCCCCc1cc(O)cc(OC(=O)c2c(CCCCCCC)cc(O)cc2OC2OC(C(O)CO)C(O)C2O)c1` (stereo not drawn) [KS-501], the “Inhibition of platelet aggregation (in words)” value in series [3] was “inhibitory activity on platelet aggregation; also recorded: inhibited platelet aggregation stimulated with thrombin and platelet activating factor”. Further, the IC50 was found to be 38 µg/mL (≈ 62.8 µM) in series [3] (stimulant platelet activating factor, final concentration 10^-10 M) and 57 µg/mL (≈ 94.3 µM) in series [3] (stimulant thrombin, final concentration 0.05 U/ml). Besides, the Solubility entry is “Readily soluble” in series [1] (KS-501: chloroform, ethyl acetate, acetonitrile, methanol, n-butanol, acetone, tetrahydrofuran, dioxane, dimethylsulfoxide, pyridine, monoethanolamine, acetic acid, alkaline water) and “Insoluble” in series [1] (setting [4]). For the same molecule, in series [2], the “Inhibition of serotonin release from platelets (in words)” value is “inhibitory activity on serotonin release from platelets; also recorded: inhibited serotonin release from rabbit platelets, depending on the concentration”. In series [2] (Oryctolagus cuniculus, 3.0 μg/ml, stimulant platelet activating factor 10^-9 M, 37° C., read-out: Rate of inhibition of serotonin release), the inhibition at 3 µg/mL is 10.2%. Besides, the inhibition at 10 µg/mL in series [2] (setting [5]) was 27.1%. In addition, the inhibition at 30 µg/mL in series [2] (setting [5]) worked out at 66.4%.
